Measurements published in ChEMBL document CHEMBL1201862, “PubChem BioAssay data set” (2004).
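Values below derive from 48-hour exposures of cells grown in 96-well plates, with endpoints linearly interpolated between the two concentrations bracketing the appropriate inhibition level. The concentration for 50% growth inhibition is given as GI50.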 Activity calls are given as the source filed them. Rule as the data show it: active = GI50 up to about 1.1 µM and inactive = higher.

Key:
Test in all cases: inhibition of tumour cell growth, NCI panel, 48 h
BT-549 = tested on: BT-549
CCRF-CEM = tested on: CCRF-CEM
HCT-116 = tested on: HCT-116
HT-29 = tested on: HT-29
Hs-578T = tested on: Hs-578T
KM12 = tested on: KM12
MDA-MB-231 = tested on: MDA-MB-231
NCI-H23 = tested on: NCI-H23
NCI-H460 = tested on: NCI-H460
OVCAR-4 = tested on: OVCAR-4
OVCAR-5 = tested on: OVCAR-5
OVCAR-8 = tested on: OVCAR-8
SF-539 = tested on: SF-539
SK-MEL-28 = tested on: SK-MEL-28
SNB-75 = tested on: SNB-75
UACC-62 = tested on: UACC-62
UO-31 = tested on: UO-31
SK-MEL-5 = tested on: SK-MEL-5
TK-10 = tested on: TK-10
SR = tested on: SR

Measured: GI50

O=[N+]([O-])C(=C1Nc2ccccc2N1)/C(Cl)=C(/Cl)N1CCOCC1
inactive: BT-549 27.5 µM | CCRF-CEM 50.8 µM | HCT-116 89.5 µM | HT-29 > 100 µM | Hs-578T 34.6 µM | KM12 > 100 µM | MDA-MB-231 36.1 µM | NCI-H23 29.3 µM | NCI-H460 > 100 µM | OVCAR-4 25.4 µM | OVCAR-5 > 100 µM | OVCAR-8 28.8 µM | SF-539 > 100 µM | SK-MEL-28 > 100 µM | SNB-75 97.7 µM | UACC-62 77.6 µM | UO-31 > 100 µM

OCCN(CO)CO
inactive: BT-549 > 100 µM | HCT-116 > 100 µM | HT-29 > 100 µM | Hs-578T > 100 µM | KM12 > 100 µM | MDA-MB-231 > 100 µM | NCI-H23 > 100 µM | NCI-H460 > 100 µM | OVCAR-4 > 100 µM | OVCAR-8 > 100 µM | SF-539 > 100 µM | SK-MEL-28 > 100 µM | SK-MEL-5 > 100 µM | SNB-75 > 100 µM | TK-10 > 100 µM | UACC-62 > 100 µM | UO-31 > 100 µM

Cc1ccc(Cc2n[nH]c(=O)n2/N=C\CC/C=N\n2c(Cc3ccc(C)cc3)n[nH]c2=O)cc1
inactive: BT-549 23 µM | CCRF-CEM 4.1 µM | HCT-116 33.1 µM | HT-29 28.8 µM | Hs-578T 15.5 µM | KM12 > 100 µM | MDA-MB-231 31.3 µM | NCI-H23 26.9 µM | OVCAR-4 > 100 µM | OVCAR-5 > 100 µM | OVCAR-8 17.8 µM | SF-539 3.99 µM | SK-MEL-28 33.5 µM | SK-MEL-5 42.2 µM | SNB-75 16.6 µM | TK-10 > 100 µM | UACC-62 25.8 µM | UO-31 > 100 µM

COc1cc(N(CCC#N)CCC#N)ccc1C(/N=N/c1cccc(C)c1)=N\NC(=O)c1ccc(C)cc1
inactive: BT-549 > 100 µM | CCRF-CEM 97.3 µM | HCT-116 > 100 µM | HT-29 > 100 µM | Hs-578T > 100 µM | KM12 > 100 µM | MDA-MB-231 > 100 µM | NCI-H23 > 100 µM | NCI-H460 25.9 µM | OVCAR-4 > 100 µM | OVCAR-5 > 100 µM | OVCAR-8 > 100 µM | SK-MEL-28 > 100 µM | SK-MEL-5 > 100 µM | TK-10 57.7 µM | UACC-62 37.2 µM | UO-31 > 100 µM

O=[N+]([O-])C(Cl)C(Cl)C(Cl)=C(Cl)Cl (stereo not drawn)
inactive: BT-549 22.6 µM | CCRF-CEM 23.7 µM | HCT-116 19.4 µM | HT-29 17.6 µM | Hs-578T 25.1 µM | KM12 > 66.7 µM | MDA-MB-231 16.2 µM | NCI-H23 23.8 µM | NCI-H460 49.1 µM | OVCAR-4 16.7 µM | OVCAR-5 > 50.2 µM | OVCAR-8 30.9 µM | SF-539 38.5 µM | SK-MEL-28 18.5 µM | SK-MEL-5 15 µM | SNB-75 32.7 µM | TK-10 19.4 µM | UACC-62 16.6 µM | UO-31 > 31.6 µM

CC1=CC(=O)/C(=C/Nc2nc(-c3ccc([N+](=O)[O-])cc3)cs2)C(=O)O1
inactive: BT-549 > 100 µM | CCRF-CEM 31.5 µM | HCT-116 > 100 µM | HT-29 > 100 µM | Hs-578T > 100 µM | KM12 > 100 µM | MDA-MB-231 > 100 µM | NCI-H23 > 100 µM | NCI-H460 > 100 µM | OVCAR-4 > 100 µM | OVCAR-5 > 100 µM | OVCAR-8 > 100 µM | SF-539 > 100 µM | SK-MEL-5 > 100 µM | SNB-75 > 100 µM | TK-10 > 100 µM | UACC-62 > 100 µM | UO-31 > 100 µM

O=C1NC(=S)N/C1=C\c1ccc(Cl)cc1
inactive: BT-549 > 100 µM | CCRF-CEM 54.2 µM | HCT-116 > 100 µM | HT-29 > 100 µM | Hs-578T 50.4 µM | KM12 89.7 µM | MDA-MB-231 > 100 µM | NCI-H23 > 100 µM | OVCAR-4 39.2 µM | OVCAR-5 > 100 µM | OVCAR-8 > 100 µM | SF-539 > 100 µM | SK-MEL-28 > 100 µM | SK-MEL-5 41.8 µM | SNB-75 > 100 µM | TK-10 > 100 µM | UACC-62 46.3 µM | UO-31 53.7 µM

O=C(O)Cc1c[nH]c2ccc(F)cc12
inactive: BT-549 > 100 µM | CCRF-CEM > 100 µM | HCT-116 > 100 µM | HT-29 > 100 µM | KM12 > 100 µM | MDA-MB-231 > 100 µM | NCI-H23 > 100 µM | NCI-H460 > 100 µM | OVCAR-4 > 100 µM | OVCAR-5 > 100 µM | OVCAR-8 > 100 µM | SF-539 > 100 µM | SK-MEL-28 > 100 µM | SK-MEL-5 > 100 µM | SNB-75 > 100 µM | SR > 100 µM | TK-10 > 100 µM | UACC-62 > 100 µM | UO-31 > 100 µM

N#C/C(=C\c1c[nH]c2ccccc12)C(=O)c1ccc(O)c(O)c1
inactive: BT-549 11.1 µM | CCRF-CEM 5.87 µM | HCT-116 31.4 µM | HT-29 28 µM | Hs-578T 47.2 µM | KM12 27.7 µM | NCI-H23 45.8 µM | NCI-H460 24.5 µM | OVCAR-4 27.2 µM | OVCAR-5 33 µM | OVCAR-8 38.5 µM | SF-539 25.6 µM | SK-MEL-28 47.3 µM | SK-MEL-5 35.5 µM | SNB-75 41 µM | SR 9.82 µM | TK-10 51.2 µM | UACC-62 28.8 µM | UO-31 6.85 µM

O=C1C=CC2CCC1C2 (stereo not drawn)
inactive: BT-549 21.4 µM | CCRF-CEM 28.4 µM | HCT-116 23.4 µM | HT-29 32.3 µM | Hs-578T 28.6 µM | KM12 32.4 µM | MDA-MB-231 28.6 µM | NCI-H23 20.6 µM | NCI-H460 30.6 µM | OVCAR-5 26.2 µM | OVCAR-8 28.7 µM | SF-539 34.7 µM | SK-MEL-28 23.5 µM | SK-MEL-5 28.6 µM | SNB-75 27.5 µM | TK-10 66.1 µM | UACC-62 19.2 µM | UO-31 31.2 µM

O=[N+]([O-])c1ccc(/N=N\c2c(O)ccc3ccccc23)c([N+](=O)[O-])c1
inactive: BT-549 > 100 µM | CCRF-CEM 29.4 µM | HCT-116 > 100 µM | HT-29 > 100 µM | Hs-578T > 100 µM | KM12 > 100 µM | MDA-MB-231 > 48.6 µM | NCI-H23 > 100 µM | NCI-H460 > 100 µM | OVCAR-4 > 100 µM | OVCAR-5 > 100 µM | OVCAR-8 > 100 µM | SK-MEL-28 > 100 µM | SK-MEL-5 > 100 µM | SNB-75 > 100 µM | TK-10 > 90.4 µM | UACC-62 > 100 µM | UO-31 > 100 µM
